{"source": "patent US6429191B1", "about": "“Treatment of hearing impairments” (Genentech, Inc., priority 1996, dated 2002)", "key": {"[1]": {"tested_on": "SGNs in cochlear explants", "method": "(§1) Cochlear explants were prepared from P3 rats, embedded and cultured in 3-D collagen gels. Ototoxins were added at various concentrations to 2-day cultures for 2 more days. After the preparations were processed for double histochemistry with N52 and phalloidin, they were examined under Zeiss Axiophot epifluorescent microscope. For each culture, SGN peripheral axons and hair cells were counted from 3-4 randomly selected fields in the middle turn of each culture. Data were collected from 6 or more cultures for each of the experimental groups. Two-tailed, unpaired t-test was used for statistical analysis. […] The error bars are SEM and double asterisks (**) indicate significant differences between experimental and control cultures (p<0.001).\n(§2) An organotype cochlear explant culture that utilizes a 3-D collagen matrix cultures and maintains its normal, in vivo architecture. Cochleae were dissected from postnatal day 3 (P3) Wistar rats. After spiral ligament and stria vascularis tissues were removed, the remaining cochlear tissue containing the spiral ganglion and organ of Corti was cut into 3 pieces according to the basal, middle and apical turns. The explants were then embedded in a three-dimensional (“3-D”) collagen matrix of a droplet (20 μl) of freshly made collagen gel which was placed on the bottom of a 35 mm Nunc tissue culture dish, modified from what described previously (Gao et al., 1991) as follows. Rat tail collagen (type I, Collaborative Research) was mixed with 10× BME medium and 2% sodium carbonate in a ratio of 10:1:1 and placed on ice just before use. The collagen matrix containing the cochlear explants were incubated at 37° C. for 5-10 min until it gelled. The matrix was then cultured in defined serum-free medium using sufficient medium to cover the explants (2 ml of serum-free medium (BME plus serum-free supplement (Sigma 1-1884), 1% BSA, 2 mM glutamine, and 5 mg/ml glucose; containing no antibiotics). The culture medium was changed every other day thereafter.\n(§3) While the neurofilament antibody (Texas red-mediated) labeled the somata and peripheral axons of SGNs, the phalloidin-FITC conjugate stained the stereocillia bundles of hair cells. Three cultures per experimental paradigm were studied in each individual experiment. Three or more separate repetitions of the experiment were conducted to validate the ototoxic effect.\n(§4) As the density of the radial peripheral axons of SGNs appeared to be a reliable index of the number of surviving SGNs, the number of the peripheral axons of SGNs from a given length (100 μm) in the middle turn of the cochlea was counted for different experimental groups and plotted in FIG. 6A. Phalloidin-labeled hair cells were also counted in the same way (FIG. 6B).\n(§5) Quantitative analysis of the numbers of peripheral axons of SGNs and hair cells in the cochlear explants were performed. The N52 and phalloidin double-labeled cochlear explants were examined under a Zeiss Axiophot epifluorescent microscope. As the density of radial peripheral axons of SGNs reflects the number of surviving SGNs, the number of these axons was counted using a grid ocular reticule covering a distance of 100 μm in the middle turns only. The surviving hair cells were counted in a similar manner. […] For each culture, SGN peripheral axons and hair cells were counted from 3-4 randomly selected fields in the middle turn of each culture."}, "[2]": {"tested_on": "hair cells in cochlear explants", "method": "as §1, §2, §3, §4, §5"}, "[3]": {"conditions": "cited from earlier work"}, "trkC receptor": {"target": "trkC receptor (Homo sapiens, UniProt Q16288)", "sequence (Q16288 32-839)": "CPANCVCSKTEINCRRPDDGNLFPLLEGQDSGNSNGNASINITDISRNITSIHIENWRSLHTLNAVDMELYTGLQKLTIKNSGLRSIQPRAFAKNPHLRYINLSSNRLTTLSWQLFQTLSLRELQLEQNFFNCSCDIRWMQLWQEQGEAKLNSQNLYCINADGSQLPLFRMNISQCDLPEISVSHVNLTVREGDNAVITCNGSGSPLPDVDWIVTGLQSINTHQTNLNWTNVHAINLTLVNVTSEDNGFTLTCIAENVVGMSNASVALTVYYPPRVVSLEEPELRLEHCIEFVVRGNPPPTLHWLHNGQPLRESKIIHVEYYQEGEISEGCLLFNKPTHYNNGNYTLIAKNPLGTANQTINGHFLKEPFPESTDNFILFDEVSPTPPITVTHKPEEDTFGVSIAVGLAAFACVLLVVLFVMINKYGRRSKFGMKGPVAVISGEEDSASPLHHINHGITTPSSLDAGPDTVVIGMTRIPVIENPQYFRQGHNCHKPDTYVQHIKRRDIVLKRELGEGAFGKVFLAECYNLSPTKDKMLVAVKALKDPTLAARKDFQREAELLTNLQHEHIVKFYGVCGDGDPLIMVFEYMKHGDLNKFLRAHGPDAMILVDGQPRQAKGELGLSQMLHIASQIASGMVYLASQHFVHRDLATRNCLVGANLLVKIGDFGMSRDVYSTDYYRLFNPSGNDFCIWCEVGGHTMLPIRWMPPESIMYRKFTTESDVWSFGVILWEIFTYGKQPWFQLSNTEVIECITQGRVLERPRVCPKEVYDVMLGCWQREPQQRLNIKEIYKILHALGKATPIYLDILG", "conditions": "compared with NT-3; cited from earlier work"}, "[4]": {"tested_on": "spiral ganglion neurons (SGNs)", "assay": "Survival of dissociated spiral ganglion neurons in serum-free culture", "type": "cell-based, rat", "conditions": "for survival-promoting effect on SGNs: P5 rat SGNs, 2 days, serum-free medium, neurotrophins 0.1-50 ng/ml", "method": "FIG. 1 is a histogram depicting the effects of NT-4/5 on SGN survival. SGNs were prepared from P5 rats, plated and kept for 2 days in serum-free medium in the absence or presence of NT-4/5 at different concentrations. Viable SGNs were identified by labeling with a neurofilament monoclonal antibody (N52), viewed under a Zeiss Axiophot microscope, and counted using a grid ocular reticule covering an area of […]. For each culture, about 10 randomly selected fields were counted. Data were collected from 3 to 5 cultures and normalized as a percentage of the number of viable neurons in the control cultures in each of the experiments. The error bars represent SEM.\nFIG. 2 is a histogram depicting the effects of different neurotrophins on SGN survival. SGNs were prepared from P5 rats and maintained for 2 days in serum-free medium without or with different neurotrophins at different concentrations. Quantitation of viable SGNs was made in the same way as in FIG. 1 and the error bars are SEM. […] Difference between NT-3 and NT-4/5 or BDNF was very significant at all doses (P<0.001). No statistical difference was found between NT-4/5 and BDNF except the dose of 0.1 ng/ml (P<0.01).\nIdentical results (not shown) were also obtained with a different neuronal marker, a monoclonal antibody 3A10 (Furley et al., 1990). SGNs were dissociated from postnatal day 5 (P5) rat cochleae and plated in defined serum-free medium. […] The enzyme was inactivated with a mixture of 0.005% soybean trypsin inhibitor (Sigma) and 0.005% DNase (Worthington) before trituration with 0.05% DNase in Eagle's Basal Medium (“BME”). The dissociated cells were preplated on a 35 mm untreated tissue culture dish for 25 min to enrich the neuronal population. Under these experimental procedures, about 10% of the cell population were spiral ganglion neurons (“SGNs”) as determined by immunocytochemistry with a monoclonal antibody (N52; Boehringer) against neurofilaments (200 kd; Boehringer). […] Cells were plated at a density of 80,000/well. In control cultures about 75% of SGNs died after 2 days, presumably due to a lack of growth factors."}, "[5]": {"tested_on": "SGNs in cochlear explants", "assay": "Protective effects in cochlear explant cultures co-treated with ototoxins, SGN peripheral axon count", "type": "cell-based, rat", "conditions": "for protective effects on SGNs against ototoxins: growth factor added together with ototoxin, data not shown; for neuroprotection of SGNs against sodium salicylate and gentamicin: 20 ng/ml neurotrophin, sodium salicylate 5 mM or gentamicin 3 mM", "method": "(§6) FIGS. 9A and 9B depict quantitation of protective effects of NT-4/5 on SGNs (FIG. 9A) and hair cells (FIG. 9B). […] The same experimental procedures were performed as in FIGS. 6A and 6B. The error bars are SEM and ** indicate that as compared to the cultures containing an ototoxin alone, p<0.001. “Con” indicates control culture.\nFIG. 10 depicts quantitation of neuroprotection of different neurotrophins against sodium salicylate (Sal) and gentamicin (Gent). […] Sodium salicylate (5 mM) or gentamicin (3 mM) was added either alone or in combination with one of the neurotrophins (20 ng/ml) to 2-day cultures and the cultures were kept for 2 more days. The same experimental procedures were performed as in FIGS. 6A and 6B. […] The error bars are SEM and ** indicate that as compared to the cultures containing an ototoxin alone, p<0.001.\n(§7) The protective effect of neurotrophins against ototoxicity was determined in the organotypic cultures of postnatal cochlear explants described in the Examples above. […] A human recombinant neurotrophin (Genentech, Inc.) or other growth factors, alone or in combination, was added to the culture at the same time the ototoxin was added.\n(§8) Two days after treatment with ototoxins or co-treatment with ototoxins and neurotrophins (or other growth factors), the cochlear explant cultures were fixed in 4% paraformaldehyde in 0.1 M phosphate buffer (pH 7.4) for 30 min, washed in PBS, and subjected to double histochemical staining of the cochlear explant cultures. After incubation with the monoclonal antibody N52 against neurofilament protein (200 kd) in 1% Triton X100 containing 3% normal goat serum (“NGS”) for 2 days at 4° C., the explants were incubated with a Texas red-conjugated goat anti-mouse secondary antibody (1:70; Cappel) at room temperature for 40 min. The preparations were then stained with FITC-conjugated phalloidin (0.5 μg/ml; Sigma) for 45 min, washed in PBS and mounted in Fluoromount-G (Southern Biotechnology Associates, Birmingham, Ala.) which contains an anti-fading agent."}, "[6]": {"tested_on": "hair cells in cochlear explants", "assay": "Protective effects in cochlear explant cultures co-treated with ototoxins, hair cell count", "type": "cell-based, rat", "conditions": "growth factor added together with ototoxin; data not shown", "method": "as §6, §7, §8"}, "[7]": {"tested_on": "spiral ganglion neurons (SGNs)", "assay": "Neurotrophin protection of dissociated SGNs against cisplatin neurotoxicity", "type": "cell-based, rat", "conditions": "for protection of SGNs compared with cultures containing cisplatin alone / protective effects against cisplatin neurotoxicity: 10 ng/ml neurotrophin; for protection of SGNs compared with cultures containing cisplatin alone: 4 μg/ml cisplatin; for protective effects against cisplatin neurotoxicity: cisplatin 1, 2 or 4 μg/ml", "excerpt": "Quantitation of viable SGNs was done in the same way as in FIG. 1. The error bars stand for SEM. […] While no difference was found between cultures containing NT-4/5 and cultures containing BDNF, the difference between cultures containing NT-3 and cultures containing NT-4/5 or BDNF was statistically very significant (P<0.001)."}}, "note": "Where two headings read alike, the source gives them in different places."}
{"molecule": "O=C([O-])c1ccccc1O.[Na+]", "note": "[sodium salicylate]", "values": [{"measurement": "effect on SGNs and their peripheral axons", "setting": "[1]; 5 mM, added to 2-day cultures for 2 more days", "value": "massive death of SGNs and degeneration of their peripheral axons"}, {"measurement": "dosage which starts to induce significant damage to SGNs", "setting": "[1]; cochlear explant cultures", "value": 3, "unit": "mM"}, {"measurement": "SGN degeneration, dose dependence", "setting": "[1]; various concentrations", "value": "dose dependent"}, {"measurement": "effect on hair cells", "setting": "[2]; 5 mM", "value": "all hair cells remained intact"}, {"measurement": "hair cell loss", "setting": "[2]; 10 mM", "value": "no significant hair cell loss"}]}
{"molecule": "[H]/N=C(/N)N[C@H]1[C@H](O)[C@@H](O)[C@H](O[C@@H]2O[C@@H](C)[C@](O)(C=O)[C@H]2O[C@@H]2O[C@@H](CO)[C@H](O)[C@@H](O)[C@@H]2NC)[C@@H](N/C(N)=N\\[H])[C@@H]1O", "note": "[streptomycin]", "values": [{"measurement": "patients developing measurable hearing loss", "setting": "[3]; 1 gram per day for greater than 1 week", "value": "4 to 15", "unit": "%"}, {"measurement": "incidence of vestibular impairment", "setting": "[3]; 1 gram per day", "value": 25, "unit": "%"}, {"measurement": "patients displaying some vestibular impairment", "setting": "[3]; 2 grams daily for 60 to 120 days", "value": "~75", "unit": "%"}]}
{"molecule": "R31A: NT-3 with mutation at position R31 to alanine", "values": [{"measurement": "trkC binding of NT-3 mutant", "setting": "trkC receptor", "value": "increased trkC binding"}]}
{"molecule": "basic fibroblast growth factor [βFGF]", "values": [{"measurement": "survival-promoting effect on SGNs", "setting": "[4]", "value": "No survival-promoting effects"}, {"measurement": "protective effects on SGNs against ototoxins", "setting": "[5]", "value": "did not show detectable protective effects"}, {"measurement": "protective effects on hair cells against ototoxins", "setting": "[6]", "value": "did not show detectable protective effects"}]}
{"molecule": "brain-derived neurotrophic factor [BDNF]", "values": [{"measurement": "survival-promoting effect on SGNs", "setting": "[4]", "value": "very significant survival-promoting effects"}, {"measurement": "potency on SGN survival compared with other neurotrophins", "setting": "[4]; concentrations from 1-50 ng/ml", "value": "equal in potency to NT-4/5"}, {"measurement": "protection of SGNs compared with cultures containing cisplatin alone", "setting": "[7]", "value": "very significant protecting effects"}, {"measurement": "protective effects against cisplatin neurotoxicity", "setting": "[7]", "value": "Equivalent protective effects"}, {"measurement": "neuroprotection of SGNs against sodium salicylate and gentamicin", "setting": "[5]", "value": "protective effects on SGNs"}]}
{"molecule": "epidermal growth factor [EGF, growth factor (Collaborative Research)]", "values": [{"measurement": "survival-promoting effect on SGNs", "setting": "[4]", "value": "No survival-promoting effects"}, {"measurement": "protective effects on SGNs against ototoxins", "setting": "[5]", "value": "did not show detectable protective effects"}, {"measurement": "protective effects on hair cells against ototoxins", "setting": "[6]", "value": "did not show detectable protective effects"}]}
{"molecule": "gentamicin", "values": [{"measurement": "SGNs remaining intact", "setting": "[1]; 5 mM", "value": "approximately 40%"}, {"measurement": "damage to SGNs", "setting": "[1]; 0.01 to 0.5 mM", "value": "not significantly damaged"}, {"measurement": "damage to SGNs", "setting": "[1]; 1-5 mM", "value": "started to induce SGN degeneration"}, {"measurement": "doses at which damage to SGNs starts", "setting": "[1]; figure legend FIG. 7A", "value": "higher than 1 mM"}, {"measurement": "effect on hair cells", "setting": "[2]; 0.01 to 0.5 mM", "value": "a substantial number of hair cells in the cochlea were killed"}, {"measurement": "effect on hair cells", "setting": "[2]; 1-5 mM", "value": "eliminated virtually all hair cells"}]}
{"molecule": "insulin-like growth factor-1 [IGF-1]", "values": [{"measurement": "protective effects on SGNs against ototoxins", "setting": "[5]", "value": "did not show detectable protective effects"}, {"measurement": "protective effects on hair cells against ototoxins", "setting": "[6]", "value": "did not show detectable protective effects"}]}
{"molecule": "neurotrophin-3 [NT-3]", "values": [{"measurement": "survival-promoting effect on SGNs", "setting": "[4]", "value": "significant survival-promoting effect"}, {"measurement": "potency on SGN survival compared with other neurotrophins", "setting": "[4]; all doses (0.1-50 ng/ml)", "value": "less potent than NT-4/5 or BDNF"}, {"measurement": "potency of protection against cisplatin compared with other neurotrophins", "setting": "[7]; 10 ng/ml", "value": "less potent compared to NT-4/5 or BDNF"}, {"measurement": "protection of SGNs compared with cultures containing cisplatin alone", "setting": "[7]", "value": "very significant protecting effects"}, {"measurement": "protective effects against cisplatin neurotoxicity", "setting": "[7]", "value": "significant protective effects"}, {"measurement": "neuroprotection of SGNs against sodium salicylate and gentamicin", "setting": "[5]", "value": "protective effects on SGNs"}]}
{"molecule": "platelet-derived growth factor [PDGF]", "values": [{"measurement": "protective effects on SGNs against ototoxins", "setting": "[5]", "value": "did not show detectable protective effects"}, {"measurement": "protective effects on hair cells against ototoxins", "setting": "[6]", "value": "did not show detectable protective effects"}]}
{"molecule": "transforming growth factor-α [TGF-α]", "values": [{"measurement": "protective effects on SGNs against ototoxins", "setting": "[5]", "value": "did not show detectable protective effects"}, {"measurement": "protective effects on hair cells against ototoxins", "setting": "[6]", "value": "did not show detectable protective effects"}]}
{"molecule": "transforming growth factor-β1 [TGF-β1]", "values": [{"measurement": "survival-promoting effect on SGNs", "setting": "[4]", "value": "No survival-promoting effects"}, {"measurement": "protective effects on SGNs against ototoxins", "setting": "[5]", "value": "did not show detectable protective effects"}, {"measurement": "protective effects on hair cells against ototoxins", "setting": "[6]", "value": "did not show detectable protective effects"}]}
